Test results: patent publication US8461389B2, “Psycho-pharmaceuticals” (University College Dublin, National University of Ireland, …, priority 2008, dated 2013)

System: C57B16 mice
Test: Forced swim test
Assay type: in vivo
Conditions: 3 mg/kg and 5 mg/kg; n=8; FIG. 10B
Experimental: • 1. Fill a 12 cm diameter glass cylinder to 10 cm with 22° C. water. • 2. Place two animals simultaneously in individual side-by-side cylinders separated by an opaque screen. • 3. Place mice in the cylinders for 6 minutes. • 4. Observe the behaviour of the mice for the last 4-minutes of the 6-minute experimental session. • 5. Sessions are videotaped and scored blind, Immobility is scored by summing the time spent immobile; movements necessary to maintain the animals head above water were not scored with data from treated groups compared with data from the control group using nonpaired Student's t tests (two tailed). • 6. Animals are dried with paper towels and heat lamps. FST in Rats: Habituation Session (Day 1) • 1. On Day 1, […] prior to testing, place the animals in the experimental room 60 min before the beginning of the habituation session. Randomly assign animals to a drug treatment, but give all animals within a cage the same treatment. Make food and water available throughout the experiment. • 2. Weigh two animals individually, then place one rat in each of the two cylinders (20 cm in diameter×40 cm high) containing water (25° C.) for 15 min (habituation session). No scoring of immobility is performed during the habituation session. […]
Values are expressed as mean±S.E.M (n=8). Statistical difference was determined using a Mann Whitney non-parametric U-test. […]

SMILES: CCCCSc1ccc(C(SCCN(C)C)c2ccccc2)cc1 (single isomer, unassigned) [dextrorotary (+) enantiomer]
- antidepressant activity of separated enantiomer (time spent immobile, forced swim test): retains the antidepressant biologic activity
